From patent US20090136551A1, “Substituted Dicyanoalkanes For Combating Animal Pests” (BASF AKTIENGESELLSCHAFT, priority 2005, published 2009)

Key:
[1] = test system: Yellowfever Mosquito (Aedes aegyptii); assay: Activity via glass contact (treated glass vials); type: in vivo; conditions: read-out: mortality against yellowfever mosquito
From the text: B.7. Activity Against Argentine Ant (Linepithema humile), Harvester Ant (Pogonomyrmex californicus), Acrobat Ant (Crematogaster spp.), Carpenter Ant (Camponotus floridanus), Fire Ant (Solenopsis invicta), House Fly (Musca domestica), Stable Fly (Stomoxys calcitrans), Flesh Fly (Sarcophaga sp.), Yellowfever Mosquito (Aedes aegyptii), House Mosquito (Culex quinquefasciatus), Malaria Mosquito (Anopheles albimanus), German Cockroach (Blattella Germanica), Cat Flea (Ctenocephalides felis), and Brown Dog Tick (Rhipicephalus sanguineus) Via Glass Contact
Glass vials were treated with 0.5 ml of a solution of active ingredient in acetone and allowed to dry. Insects or ticks were placed into each vial together with some food and moisture supply.

[2] = test system: Bird Cherry-Oat Aphid (Rhopalosiphum padi); assay: Activity against bird cherry-oat aphid (sprayed barley leaf disks); type: in vivo; conditions: foliar, 120 h
Method: B.6. Activity Against Bird Cherry-Oat Aphid Aphid (Rhopalosiphum padi)
The active compounds were formulated in 1:3 DMSO:water. Barley leaf disks were placed into microtiterplates filled with 0.8% agar-agar and 2.5 ppm OPUS™. The leaf disks were sprayed with 2.5 μl of the test solution and 5 to 8 adult aphids were placed into the microtiterplates which were then closed and kept at 19-22° C. and 35-45% under fluorescent light for 5 days. Mortality was assessed on the basis of vital, reproduced aphids. Tests were replicated 2 times.

N#CC(C#N)(CCC(F)(F)F)Cc1cccc2nsnc12 [I.1, 2-benzo[1,2,5]thiadiazol-4-ylmethyl-2-(3,3,3-trifluoropropyl)-malononitrile]
mortality at 10 ppm [1]: > 75% | mortality at 300 ppm [2]: > 90%
